“Also recorded” adds a separate entry of the source. Values belong to the molecule of their own block, whether it stands above or below them.
How the values were obtained:
1A9-A8^E cells [1] = assay: cells; assay type: cell-based, human; settings: for IC50: 1A9-A8^E cells, 72 hour exposure to the drug; for resistance of early-step isolate 1A9-A8^E to the selecting agent: growth inhibition assays, versus parental 1A9; for Relative Resistance (1A9-A8^E): ratio of IC50 against 1A9-A8^E divided by IC50 against parental 1A9
Description: (§1) The epothilone A resistant cell line, 1A9-A8, was selected from the human ovarian carcinoma 1A9 cells as described by Giannakakou et al. ((2000) Proc. Natl. Acad. Sci. USA 97:2904-2909). The 1A9-A8^E clone (expressing both wt and mutant alleles) was an intermediate isolate in the selection process of 1A9-A8 (mutant allele only) cells. These cells were cultured in RPMI 1640 medium (Cellgro, Herndon, Va.) supplemented with 10% fetal bovine serum (Invitrogen, Carlsbad, Calif.) and 1% Penicillin-Streptomycin (Cellgro), and grown as monolayers at 37° C. in a 5% CO2 tissue culture incubator. The mouse monoclonal anti-α-tubulin (DM1α) antibody used is from Sigma Chemical Co. (St. Louis, Mo.). Both epothilones A and B were a generous gift from the laboratory of K. C. Nicolaou (The Scripps Research Institute, La Jolla, Calif.). Paclitaxel (Taxol®) was purchased from Sigma Chemical Co. and vincristine from Eli-Lilly (Indianapolis, Ind.).
(§2) Cytotoxicity assays using the protein-staining sulforhodamine B (SRB) method were performed in 96-well plates, as described by Giannakakou et al. ((1997) J. Biol. Chem. 272:17118-17125).

1A9-A8 cells [2] = assay: cells; assay type: cell-based, human; settings: for IC50: 1A9-A8 cells, 72 hour exposure to the drug; for Relative Resistance (1A9-A8): ratio of IC50 against 1A9-A8 divided by IC50 against parental 1A9
Description: as §1, §2

1A9 cells [3] = assay: cells; assay type: cell-based, human; settings: parental 1A9 cells, 72 hour exposure to the drug
Description: as §1, §2

[4] = test system: human epidermoid carcinoma cell line; settings: Thr274Pro β-tubulin mutation; cited from earlier work
[5] = test system: 1A9/B10 ovarian cancer cells; settings: βArg282Gln mutation, EpoB-selected 1A9/B10 cells; cited from earlier work
1A9-A8 cells [6] = assay: Mitotic index analysis, 1A9-A8 cells; assay type: cell-based, human; settings: 24 hr
Description: (§3) Cells were plated on glass coverslips and treated with drugs for 24 hours. Cells were fixed with ice-cold methanol and DNA was stained with Sytox Green (Molecular Probes, Eugene, Oreg.). Epifluorescence microscopy was used to count a minimum of 500 cells per drug treatment and mitotic figures were scored.

tubulin [7] = assay: Cell-based tubulin polymerization assay, 1A9-A8^E cells; set-up: species or system human
Description: (§4) Drug-sensitive parental 1A9 (top panel) and the Epo A-resistant clones, 1A9/A8 and 1A9/A8E (lower panel), were treated for 5 hours with or without (0) various concentrations of Epo A as indicated. After cell lysis, the polymerized (P) and the soluble (S) protein fractions were separated by centrifugation, resolved by SDS/PAGE, and immunoblotted with an antibody against alpha-tubulin. The percent of polymerized tubulin (% P) was determined by dividing the densitometric value of polymerized tubulin by the total tubulin content (the sum of P plus S). The results shown are from a representative experiment of four independent observations.
(§5) In order to examine whether the tubulin gene status correlates with the ability of epothilone to induce tubulin polymerization in the three related cell lines (1A9, 1A9-A8, and 1A9-A8^E), cell-based tubulin polymerization assays were performed (FIG. 1). After treating the cells with escalating doses of Epo A, the cells were harvested in a low salt buffer and then centrifuged to separate the pellet fraction containing the polymerized form of tubulin, from the supernatant that contains the soluble form of tubulin. […]
(§6) Quantitation of the degree of in vivo tubulin polymerization in response to Epothilone A was performed as described by Giannakakou et al. ((1997) J. Biol. Chem. 272:17118-17125). […]

1A9-A8^E cells [8] = assay: Mitotic index analysis, 1A9-A8^E cells; assay type: cell-based, human; settings: 24 hr
Description: as §3

1A9 cells [9] = assay: Cell cycle analysis by flow cytometry (G2/M arrest), 1A9 cells; assay type: cell-based, human
Description: (§7) Cell cycle analysis by flow cytometry was performed in the parental 1A9 and the 1A9-Epo^R clones, following overnight treatment with Epo A or Vincristine (VCR) as indicated. […] 10,000 events were recorded for each condition, the histogram is representative of three independent experiments.
(§8) Cells were plated in 6-well plates. The following day, they were treated with various concentrations of epothilone A and vincristine for 18 hours. Following treatment, both adherent and floating cells were harvested and pelleted by centrifugation. Cell pellets were suspended in 1 ml of 0.1 mg/ml propidium iodide containing 0.6% NP40 (ICN Pharmaceuticals, Costa Mesa, Calif.) with 1 mg/ml RNase A (Sigma Chemical Co.), then incubated in the dark at room temperature for 30 minutes. Data acquisition and analysis were performed on a FACScan instrument equipped with CellQuest software (Becton Dickinson Immunocytometry Systems, Franklin Lakes, N.J.). Cell cycle analysis was performed with Flowjo (Treestar). All cell cycle experiments were performed at least three times.

tubulin [10] = molecular target: T1, tubulin (Homo sapiens, UniProt P07437, T274I); assay: Cell-based tubulin polymerization assay, 1A9-A8 cells
T1 construct: endogenous in cells; host or cells: 1A9-A8 cells (late-step epothilone A-resistant clone of 1A9)
T1 sequence (P07437 whole entry T274I): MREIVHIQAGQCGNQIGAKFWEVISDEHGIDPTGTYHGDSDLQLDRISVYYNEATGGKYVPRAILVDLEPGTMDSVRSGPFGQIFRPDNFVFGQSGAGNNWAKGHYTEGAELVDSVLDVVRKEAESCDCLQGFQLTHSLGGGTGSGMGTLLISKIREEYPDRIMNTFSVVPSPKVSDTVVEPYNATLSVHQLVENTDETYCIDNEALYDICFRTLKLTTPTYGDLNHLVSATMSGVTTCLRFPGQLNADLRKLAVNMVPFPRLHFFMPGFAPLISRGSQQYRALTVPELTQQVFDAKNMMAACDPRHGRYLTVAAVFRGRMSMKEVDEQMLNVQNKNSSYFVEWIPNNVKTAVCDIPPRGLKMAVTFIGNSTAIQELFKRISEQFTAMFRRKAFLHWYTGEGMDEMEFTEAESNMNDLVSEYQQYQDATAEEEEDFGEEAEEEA
T1 sequence (P68363 whole entry partner): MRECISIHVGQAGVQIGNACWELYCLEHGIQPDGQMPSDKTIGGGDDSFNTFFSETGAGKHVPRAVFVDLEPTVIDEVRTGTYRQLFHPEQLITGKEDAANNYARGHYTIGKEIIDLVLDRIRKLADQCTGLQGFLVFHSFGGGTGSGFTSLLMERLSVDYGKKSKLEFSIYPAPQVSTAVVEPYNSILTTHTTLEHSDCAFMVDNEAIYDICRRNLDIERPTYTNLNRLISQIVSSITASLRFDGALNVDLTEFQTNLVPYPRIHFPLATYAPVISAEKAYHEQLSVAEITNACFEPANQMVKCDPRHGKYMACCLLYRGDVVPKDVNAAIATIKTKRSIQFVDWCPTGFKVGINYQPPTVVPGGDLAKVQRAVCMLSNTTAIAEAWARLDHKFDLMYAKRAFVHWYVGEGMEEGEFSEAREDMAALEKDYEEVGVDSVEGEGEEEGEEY
Description: as §4, §5, §6

tubulin [11] = molecular target: T2, tubulin (Homo sapiens, UniProt P07437); assay: Cell-based tubulin polymerization assay, 1A9 cells
T2 construct: endogenous in cells; host or cells: 1A9 human ovarian carcinoma cells
T2 sequence (P68363 whole entry): as the sequence (P68363 whole entry partner) above
T2 sequence (P07437 whole entry): as the sequence (P07437 whole entry T274I) above, with I274T counted along it
Description: as §4, §5, §6

1A9-A8^E cells [12] = assay: Cell cycle analysis by flow cytometry (G2/M arrest), 1A9-A8^E cells; assay type: cell-based, human
Description: as §7, §8

1A9-A8 cells [13] = assay: Cell cycle analysis by flow cytometry (G2/M arrest), 1A9-A8 cells; assay type: cell-based, human
Description: as §7, §8

1A9 cells [14] = assay: Mitotic index analysis, 1A9 cells; assay type: cell-based, human; settings: 24 hr
Description: as §3

KB-3-1 epidermal cells = settings: Asp26Glu β-tubulin mutation; cited from earlier work
[15] = test system: non-small cell lung cancer (NSCLC), Hela, and human leukemia cells; settings: Gln292Glu β-tubulin mutation; cited from earlier work
[16] = test system: human ovarian cancer clones; settings: two Taxol-selected ovarian clones, Phe270Val and Ala364Thr; cited from earlier work
[17] = test system: epothilone-resistant human ovarian cancer cell lines; settings: Thr274Ile and Arg282Gln epothilone-selected ovarian lines; cited from earlier work
[18] = test system: human breast cancer cells; settings: Glu198Gly β-tubulin mutation; cited from earlier work

SMILES: C/C(=C\c1csc(C)n1)[C@@H]1C[C@@H]2O[C@@H]2CCC[C@H](C)[C@H](O)[C@@H](C)C(=O)C(C)(C)[C@@H](O)CC(=O)O1 [Epothilone A]
IC50 (1A9-A8^E cells [1]): 32 nM | resistance of early-step isolate 1A9-A8^E to the selecting agent (1A9-A8^E cells [1]): 10 fold | resistance of early-step isolate 1A9-A8^E to the selecting agent (1A9-A8^E cells [1]; listed as Epo A): ten-fold | Relative Resistance (1A9-A8^E) (1A9-A8^E cells [1]): 10 | IC50 (1A9-A8 cells [2]): 125 nM | resistance of late-step 1A9-A8 clone to the selecting agent (1A9-A8 cells [2]; growth inhibition assays, versus parental 1A9): 40 fold | Relative Resistance (1A9-A8) (1A9-A8 cells [2]): 39 | IC50 (1A9 cells [3]): 3.2 nM | fold resistance / cross-resistance [4]: 45 fold | fold resistance / cross-resistance [5]: 57-74 fold | Mitotic Index (%) (1A9-A8 cells [6]; 10 nM): 2.7% | Mitotic Index (%) (1A9-A8 cells [6]; 100 nM): 6.1% | effect on tubulin polymerization (tubulin [7]; 1A9-A8^E cells, escalating doses): intermediate degree of tubulin polymerization | percent of polymerized tubulin (% P) (tubulin [7]; early-step 1A9-A8^E cells, 150 nM): 70% | Mitotic Index (%) (1A9-A8^E cells [8]; 10 nM): 39% | Mitotic Index (%) (1A9-A8^E cells [8]; 100 nM): 47% | G2/M arrest (1A9 cells [9]; Epo A overnight treatment): complete G2/M arrest | effect on tubulin polymerization (tubulin [10]; 1A9-A8 cells, up to highest drug concentration (1500 nM)): almost no effect on tubulin polymerization | percent of polymerized tubulin (% P) (tubulin [10]; late-step 1A9-A8 cells, 150 nM): 3% | effect on tubulin polymerization (tubulin [11]; 1A9 cells, escalating doses): dose-dependent increase in tubulin polymerization | percent of polymerized tubulin (% P) (tubulin [11]; parental 1A9 cells, 150 nM): 90% | G2/M arrest (1A9-A8^E cells [12]; Epo A overnight treatment): partially arrested in G2/M; also recorded: modest G2/M arrest | G2/M arrest (1A9-A8 cells [13]; Epo A overnight treatment, even at the highest concentration): failed to arrest in mitosis; also recorded: no change was observed in the cell cycle profile | Mitotic Index (%) (1A9 cells [14]; 10 nM): 82% | Mitotic Index (%) (1A9 cells [14]; 100 nM): 96%

SMILES: C/C(=C\c1csc(C)n1)[C@@H]1C[C@@H]2O[C@]2(C)CCC[C@H](C)[C@H](O)[C@@H](C)C(=O)C(C)(C)[C@@H](O)CC(=O)O1 [Epothilone B]
IC50 (1A9-A8^E cells [1]): 8 nM | Relative Resistance (1A9-A8^E) (1A9-A8^E cells [1]): 9 | IC50 (1A9-A8 cells [2]): 29 nM | Relative Resistance (1A9-A8) (1A9-A8 cells [2]): 32 | IC50 (1A9 cells [3]): 0.9 nM | fold resistance / cross-resistance [4]: 8 fold | fold resistance / cross-resistance [5]: 24-53 fold | fold resistance / cross-resistance (KB-3-1 epidermal cells): minimal cross-resistance

IC50 (1A9-A8^E cells [1]; Homo sapiens): 9 nM | IC50 (1A9-A8 cells [2]; Homo sapiens): 15 nM
SMILES: CC(=O)O[C@H]1C(=O)[C@@]2(C)[C@H]([C@H](OC(=O)c3ccccc3)[C@]3(O)C[C@H](OC(=O)[C@H](O)[C@@H](NC(=O)c4ccccc4)c4ccccc4)C(C)=C1C3(C)C)[C@]1(OC(C)=O)CO[C@@H]1C[C@@H]2O [Paclitaxel]
Relative Resistance (1A9-A8^E) (1A9-A8^E cells [1]): 6 | Relative Resistance (1A9-A8) (1A9-A8 cells [2]): 10 | IC50 (1A9 cells [3]; Homo sapiens): 1.5 nM | fold resistance / cross-resistance [4]: 96 fold | fold resistance / cross-resistance [15]: 22 fold | fold resistance (IC50 resistant line over IC50 parental line) [16]: 30 fold | cross-resistance [17]: 7-10 fold | fold resistance / cross-resistance (KB-3-1 epidermal cells): 18 fold | fold resistance / cross resistance [18]: 17 fold

SMILES: CC(=O)O[C@@]12CO[C@@H]1C[C@H](O)[C@@]1(C)C(=O)[C@H](O)C3=C(C)[C@@H](OC(=O)[C@H](O)[C@@H](NC(=O)OC(C)(C)C)c4ccccc4)C[C@@](O)([C@@H](OC(=O)c4ccccc4)[C@H]21)C3(C)C [Taxotere]
fold resistance / cross-resistance [15]: 13 fold | fold resistance / cross-resistance (KB-3-1 epidermal cells): 10 fold | fold resistance / cross resistance [18]: some cross resistance

SMILES: CC[C@]1(O)C[C@H]2CN(CCc3c([nH]c4ccccc34)[C@@](C(=O)OC)(c3cc4c(cc3OC)N(C=O)[C@H]3[C@@](O)(C(=O)OC)[C@H](OC(C)=O)[C@]5(CC)C=CCN6CC[C@]43[C@@H]65)C2)C1 [Vincristine]
G2/M arrest (1A9 cells [9]; 10 nM): G2/M arrest | G2/M arrest (1A9-A8^E cells [12]; 10 nM): arrested in G2/M | G2/M arrest (1A9-A8^E cells [12]; 10 nM, listed as vincristine): G2/M arrest | G2/M arrest (1A9-A8 cells [13]; 10 nM): arrested in G2/M | G2/M arrest (1A9-A8 cells [13]; 10 nM, listed as vincristine): G2/M arrest

Reference: patent US20070190544A1, “Methods of screening for resistance to microtuble-targeting drugs” (Emory University, priority 2005, published 2007)
